What all share (conditions): incubation time: 72 h
Assay [1] has as its system CAL-85-1. Put plainly: drug sensitivity score (DSS), CellTox Green (DSS (AUC-based score)); higher = stronger drug effect (viability inhibition or cytotoxicity); extreme values may be limits of the assay. The method in brief:
(§1)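 Normalisation on every plate relied on 0.1 % DMSO and a positive kill control. The plates, 384-well format, held compound at 5 concentrations 10-fold apart across a compound-specific 10,000-fold range, and breast cancer cell lines in 20 µl suspension were incubated on them for 72 h before CellTox Green and then CellTiter-Glo readings. The drug sensitivity score derives from the area under the fitted dose-response curve.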

The next assay has as its system Hs578T. The assay is described as above. The method in brief:
as §1

The subject of the next assay is BT-549. The assay is described as above. The method in brief:
as §1

For a further assay, the system named is HCC1599. Described as above. The method in brief: as §1
For another assay, the system named is BT-474. The description is as above. The method in brief: as §1
The test system of assay [2] is HCC1143. The description is as above. The method in brief:
as §1

The next assay relates to MDA-MB-436. The assay is described as above. The method in brief: as §1
The test system of another assay is MCF-10A. Described as above. The method in brief:
as §1

Assay [3] relates to MFM-223. Described as above. The method in brief: as §1
The subject of assay [4] is CAL-120. The assay is described as above. The method in brief:
as §1

The test system of a further assay is HDQ-P1. Described as above. The method in brief:
as §1

Assay [5] deals with MDA-MB-453. Described as above. The method in brief: as §1
Another assay has as its system CAL-51. The assay is described as above. The method in brief:
as §1

In assay [6] the test system is DU-4475. Described as above. The method in brief: as §1
Another assay deals with MDA-MB-468. The assay is described as above. The method in brief: as §1
The test system of the next assay is MDA-MB-231. The description is as above. The method in brief: as §1
The next assay has as its system HCC1937. Described as above. The method in brief: as §1
In assay [7] the test system is CAL-148. The description is as above. The method in brief: as §1
In a further assay the test system is SK-BR-3. Put plainly: normalised viability (% of control), CellTiter-Blue; higher = more viable cells (about 100 = DMSO control). The method in brief: (§2)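 The reported figure is normalised viability at a single listed concentration of the series. Breast cancer cell lines (20 µl suspension) went onto 384-well plates holding compound in 5 µl medium for 72 h. CellTiter-Blue (2.5 µl, 2 h, 37 °C) was read by fluorescence at 560/590 nm, and each plate was scaled to vehicle at 100 and a positive kill control at 0.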
A general note: Resazurin is reduced to fluorescent resorufin, in cell work by metabolically active cells.

The subject of assay [8] is MFM-223. The assay is described as above. The method in brief:
as §2

Assay [9] concerns CAL-120. Described as above. The method in brief:
as §2

In assay [10] the test system is MDA-MB-453. Described as above. The method in brief:
as §2

For assay [11], the system named is CAL-85-1. Put plainly: normalised viability (% of control), CellTiter-Blue; higher = more viable cells (about 100 = DMSO control). The protocol: (§3)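 DSRT, CellTiter-Blue viability, 72 h incubation. Signal is normalised to DMSO and benzethonium chloride controls. Value is the normalised response at dose 8.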
Assay [12] has as its system MDA-MB-453. Described as above. The protocol:
as §3
The source holds these as a separate data set.

The test system of assay [13] is DU-4475. Described as above. The protocol: as §3
The subject of assay [14] is CAL-148. The assay is described as above. The protocol:
as §3

The test system of assay [15] is HCC1143. Put plainly: normalised viability (% of control), CellTiter-Blue; higher = more viable cells (about 100 = DMSO control). The method in brief: as §2

Several values for one entry are separate records, joined by “and”; a condition that tells them apart may be missing. Equal values may be shown once.

As for `CO[C@H]1C[C@@H]2CC[C@@H](C)[C@@](O)(O2)C(=O)C(=O)N2CCCC[C@H]2C(=O)O[C@H]([C@H](C)C[C@@H]2CC[C@@H](OCCO)[C@H](OC)C2)CC(=O)[C@H](C)/C=C(\C)[C@@H](O)[C@@H](OC)C(=O)[C@H](C)C[C@H](C)/C=C/C=C/C=C/1C` [Everolimus], the drug sensitivity score was determined as 0 in the assay with CAL-85-1 [1]; 0 in the assay on Hs578T; 8.1 with BT-549; 0 with HCC1599; 0 in the assay with BT-474; 0 with HCC1143 [2]. Moreover, the drug sensitivity score in the assay with MDA-MB-436 amounted to 0; in the assay on MCF-10A it was 0; with MFM-223 [3], 5.95; in the assay with CAL-120 [4], 0; in the assay on HDQ-P1 it was 0; in the assay with MDA-MB-453 [5], 0. The drug sensitivity score in the assay with CAL-51, in the assay with DU-4475 [6], in the assay on MDA-MB-468, with MDA-MB-231, with HCC1937 and in the assay with CAL-148 [7] was 0 throughout. Further, the normalised viability is 55.1% and 36.7% in the assay on SK-BR-3 (1000 nM); 51.6% and 26.8% with MFM-223 [8] (1000 nM); 53.2% and 38.1% in the assay with CAL-120 [9] (1000 nM); 32.7% and 28.1% in the assay on MDA-MB-453 [10] (10 nM); 57% and 52.9% in the assay with CAL-85-1 [11] (300 nM); 28.7% and 29.6% in the assay with MDA-MB-453 [12] (300 nM). Further, the normalised viability is 60.9% and 62.6% in the assay on DU-4475 [13] (300 nM); 39% and 37.2% in the assay on CAL-148 [14] (300 nM).
With `Cc1cc2c(C(C)C)c(O)c(O)c(C=O)c2c(O)c1-c1c(C)cc2c(C(C)C)c(O)c(O)c(C=O)c2c1O` [Gossypol], the normalised viability in the assay on HCC1143 [15] (100000 nM) came out at 15.7%; with SK-BR-3 (100000 nM) it was 1.49%; in the assay on MFM-223 [8] (100000 nM) it was 4.14%; in the assay with CAL-120 [9] (100000 nM) it was 3.6%; in the assay on MDA-MB-453 [10] (1000 nM) it was 105%; with CAL-85-1 [11] (30000 nM) it was 5.42%. In addition, the normalised viability in the assay on MDA-MB-453 [12] (30000 nM) amounted to 5.68%; in the assay on DU-4475 [13] (30000 nM) it was 4.25%; in the assay on CAL-148 [14] (30000 nM), 7.03%.
For `Nc1nc(OCc2cc(Br)cs2)c2[nH]cnc2n1` [Lomeguatrib], the drug sensitivity score in the assay on CAL-85-1 [1], with Hs578T, with BT-549, in the assay with HCC1599, in the assay on BT-474 and in the assay on HCC1143 [2] was 0 throughout. In addition, the drug sensitivity score with MDA-MB-436, in the assay with MCF-10A, with MFM-223 [3], with CAL-120 [4], with HDQ-P1 and in the assay on MDA-MB-453 [5] was 0 in each case. Besides, the drug sensitivity score with CAL-51 came to 0; with DU-4475 [6], 0; in the assay with MDA-MB-468 it was 0; with MDA-MB-231, 0; with HCC1937 it was 1.11; with CAL-148 [7], 0.
Regarding `Cn1c(=O)n(-c2ccc(C(C)(C)C#N)cc2)c2c3cc(-c4cnc5ccccc5c4)ccc3ncc21` [NVP-BEZ235], the normalised viability is 30.1% in the assay with HCC1143 [15] (1000 nM); 15.6% with SK-BR-3 (1000 nM); 24.1% with MFM-223 [8] (1000 nM); 14.4% in the assay on CAL-120 [9] (1000 nM); 49.9% with MDA-MB-453 [10] (10 nM); 29.5% with CAL-85-1 [11] (300 nM). Also, the normalised viability was 12.6% with MDA-MB-453 [12] (300 nM), 15.8% in the assay on DU-4475 [13] (300 nM) and 10.7% with CAL-148 [14] (300 nM).
As to `COc1ccccc1S(=O)(=O)Nc1ccc2c(c1)CN(C)C(=O)N2` [PFI-1], the drug sensitivity score was 0.65 in the assay on CAL-85-1 [1]; 0 with Hs578T; 0 with BT-549; 0 in the assay with HCC1599; 0 in the assay with BT-474; 0 with HCC1143 [2]. In addition, the drug sensitivity score in the assay on MDA-MB-436, with MCF-10A, with MFM-223 [3], in the assay with CAL-120 [4], in the assay on HDQ-P1 and in the assay with MDA-MB-453 [5] was 0 throughout. In addition, the drug sensitivity score in the assay on CAL-51, in the assay with DU-4475 [6], in the assay with MDA-MB-468, in the assay on MDA-MB-231, with HCC1937 and with CAL-148 [7] was 0 throughout.
`NS(=O)(=O)OC[C@@H]1C[C@@H](n2ccc3c(N[C@H]4CCc5ccccc54)ncnc32)C[C@@H]1O` [Pevonedistat]: the drug sensitivity score with CAL-85-1 [1] came to 0; with Hs578T, 0.549; with BT-549, 0; in the assay on HCC1599, 0.787; with BT-474 it was 0; in the assay on HCC1143 [2], 0. The drug sensitivity score with MDA-MB-436 is 6.93; in the assay with MCF-10A, 0; with MFM-223 [3] it was 0; in the assay with CAL-120 [4] it was 0; in the assay with HDQ-P1, 0; in the assay with MDA-MB-453 [5], 0. Further, the drug sensitivity score in the assay on CAL-51 stood at 25.3; in the assay on DU-4475 [6] it was 4.01; with MDA-MB-468 it was 7.99; in the assay with MDA-MB-231, 0; in the assay on HCC1937 it was 0; in the assay with CAL-148 [7], 0.
In the case of `CNNCc1ccc(C(=O)NC(C)C)cc1` [Procarbazine], the drug sensitivity score with CAL-85-1 [1] came out at 1.2; with Hs578T, 0; in the assay with BT-549, 0; with HCC1599, 0; in the assay with BT-474 it was 0; with HCC1143 [2], 0. Further, the drug sensitivity score in the assay with MDA-MB-436, with MCF-10A, in the assay with MFM-223 [3], with CAL-120 [4], in the assay with HDQ-P1 and in the assay on CAL-51 was 0 throughout. Moreover, the drug sensitivity score came out at 0 with DU-4475 [6]; 3.72 with MDA-MB-468; 0 with MDA-MB-231; 1.67 in the assay with HCC1937; 0 in the assay on CAL-148 [7]. The normalised viability with HCC1143 [15] (10000 nM) was found to be 93.6%; in the assay on SK-BR-3 (10000 nM) it was 106%; with MFM-223 [8] (10000 nM), 97.8%; in the assay with CAL-120 [9] (10000 nM) it was 88.2%; with MDA-MB-453 [10] (100 nM), 109%; with CAL-85-1 [11] (3000 nM), 95.7%. Moreover, the normalised viability is 102% with MDA-MB-453 [12] (3000 nM), 100% with DU-4475 [13] (3000 nM) and 101% in the assay with CAL-148 [14] (3000 nM).
As to `CN(C)C[C@@H]1CCn2cc(c3ccccc32)C2=C(C(=O)NC2=O)c2cn(c3ccccc23)CCO1` [Ruboxistaurin], the drug sensitivity score in the assay on CAL-85-1 [1] is 7.2; in the assay with BT-549, 2.34; in the assay on HCC1599 it was 0; in the assay with BT-474 it was 17.2; in the assay on HCC1143 [2], 0; in the assay on MDA-MB-436, 5.62. Also, the drug sensitivity score worked out at 0 in the assay with MCF-10A; 0 in the assay with MFM-223 [3]; 0.954 in the assay with CAL-120 [4]; 2.84 with HDQ-P1; 4.68 with MDA-MB-453 [5]; 9.21 in the assay with CAL-51. For the same compound, the drug sensitivity score in the assay on DU-4475 [6] was found to be 0; with MDA-MB-468, 6.81; with MDA-MB-231, 7.98; in the assay with HCC1937 it was 1.71; in the assay with CAL-148 [7], 10.6. For the same compound, the normalised viability came to 94% in the assay on HCC1143 [15] (10000 nM); 4% in the assay on SK-BR-3 (10000 nM); 30.1% in the assay on MFM-223 [8] (10000 nM); 38.9% in the assay with CAL-120 [9] (10000 nM); 93% in the assay with MDA-MB-453 [10] (100 nM); 106% in the assay with CAL-85-1 [11] (3000 nM). The normalised viability in the assay with MDA-MB-453 [12] (3000 nM) worked out at 74.2%; in the assay on DU-4475 [13] (3000 nM), 61.1%; with CAL-148 [14] (3000 nM), 79.4%.

The record behind these values is the supplement of paper PMC4862054.
